Data reported in DBAASP.
Values after ≈ are worked out from the molar mass of the structure shown. Each block holds one compound with its values, some of them ahead of it.

Assays:
Experiment in all cases: ≥ marks a high value that may be exact or a test limit, other limits are often not marked, values filed in µg/mL are converted to µM
[1] = system: Mycobacterium tuberculosis H37Rv
[2] = system: Candida albicans ATCC 90028
[3] = system: Pseudomonas aeruginosa Pa1409
[4] = system: Staphylococcus aureus NCTC 8325
[5] = system: Acinetobacter baumannii Ab5753
[6] = system: Staphylococcus aureus Sa1390
[7] = system: Escherichia coli ATCC 25922
Escherichia coli Ec513 = system: Escherichia coli Ec513
[8] = system: Staphylococcus epidermidis ATCC 12228
[9] = system: Salmonella enterica subsp. enterica serovar Pullorum C79-13
[10] = system: Escherichia coli O157:H7 CICC 21530
[11] = system: Pseudomonas aeruginosa PAO1
[12] = system: Lacticaseibacillus rhamnosus 1.9021
Escherichia coli K88 = system: Escherichia coli K88
[13] = system: Salmonella enterica subsp. enterica serovar Choleraesuis CVCC 503
[14] = system: Streptococcus agalactiae BNCC 185941
[15] = system: Pseudomonas aeruginosa ATCC 27853
[16] = system: Lacticaseibacillus rhamnosus 1.0911
[17] = system: Staphylococcus aureus ATCC 29213
[18] = system: Lacticaseibacillus rhamnosus 1.0936
[19] = system: Lacticaseibacillus rhamnosus 8014
[20] = system: Salmonella enterica subsp. enterica serovar Typhimurium ATCC 14028
[21] = system: Staphylococcus aureus ATCC 43300
[22] = system: Lactococcus lactis MG1363
Escherichia coli INV-a = system: Escherichia coli INV-a
[23] = system: Staphylococcus aureus CCT 6538
[24] = system: Cryptococcus neoformans ATCC 90112
[25] = system: Staphylococcus aureus CCT 2580
[26] = system: Escherichia coli ATCC 11775
[27] = system: Micrococcus luteus ATCC 4698
[28] = system: Escherichia coli CCT 1457
[29] = system: Paracoccidioides brasiliensis
[30] = system: Salmonella enterica subsp. enterica serovar Choleraesuis ATCC 10708
[31] = system: Bacillus thuringiensis ATCC 10792
[32] = system: Paracoccidioides lutzii ATCC MYA-826
[33] = system: Pseudomonas aeruginosa ATCC 13388
[34] = system: Streptococcus mutans AU159
[35] = system: Staphylococcus aureus ATCC 25923
[36] = system: Enterococcus hirae ATCC 10541
[37] = system: Cryptococcus gattii ATCC 56990
[38] = system: Enterococcus faecium CCT 5079
[39] = system: Pseudomonas aeruginosa ATCC 15422
[40] = system: Bacillus cereus ATCC 11778
[41] = system: Streptococcus pneumoniae ATCC 11733

MIC [1]: 18.1 µM (≈ 37.5 µg/mL)
Compound: CC(C)C[C@H](NC(=O)[C@H](C)N)C(=O)N[C@@H](CCCCN)C(=O)N[C@@H](CCCCN)C(=O)N[C@@H](CC(C)C)C(=O)N[C@H](C(=O)N[C@@H](CCCN=C(N)N)C(=O)N[C@@H](Cc1c[nH]c2ccccc12)C(=O)N[C@@H](Cc1c[nH]c2ccccc12)C(=O)N[C@@H](CCCCN)C(=O)N[C@@H](CCCN=C(N)N)C(=O)N[C@@H](Cc1c[nH]c2ccccc12)C(=O)N[C@@H](Cc1c[nH]c2ccccc12)C(=O)N[C@@H](CO)C(=O)N[C@@H](CCCCN)C(=O)O)C(C)C [ALKKLVRWWKRWWSK]

MIC [2]: 14 µM (≈ 29.5 µg/mL)
MIC [3]: ≥ 60.6 µM
MIC [4]: 17 µM (≈ 35.9 µg/mL)
MIC [5]: ≥ 60.6 µM
MIC [6]: 30.3 µM (≈ 63.9 µg/mL)
MIC [7]: 4 µM (≈ 8.44 µg/mL)
MIC (Escherichia coli Ec513): ≥ 60.6 µM
Compound: CC[C@H](C)[C@H](NC(=O)[C@H](CC(C)C)NC(=O)[C@H](C)NC(=O)[C@@H]1CCCN1C(=O)[C@H](Cc1ccccc1)NC(=O)[C@H](C)NC(=O)[C@H](CCCCN)NC(=O)[C@H](CCSC)NC(=O)[C@H](CC(C)C)NC(=O)CNC(=O)CNC(=O)[C@H](CC(C)C)NC(=O)[C@@H](N)Cc1ccccc1)C(=O)N[C@H]1CSSC[C@@H](C(=O)O)NC(=O)[C@H](CCCCN)NC(=O)[C@H](CCCCN)NC(=O)[C@H]([C@@H](C)O)NC(=O)[C@H](C(C)C)NC(=O)[C@H](C)NC1=O [FLGGLMKAFPALICAVTKKC]

MIC [8]: > 128 µM
MIC [9]: 16 µM (≈ 20.5 µg/mL)
MIC [10]: ≥ 64 µM
MIC [11]: 64 µM (≈ 82.1 µg/mL)
MIC [12]: ≥ 128 µM
MIC (Escherichia coli K88): 16 µM (≈ 20.5 µg/mL)
MIC [14]: ≥ 128 µM
MIC [15]: > 128 µM
MIC [16]: ≥ 128 µM
MIC [17]: > 128 µM
MIC [18]: ≥ 128 µM
MIC [19]: ≥ 128 µM
MIC [20]: > 128 µM
MIC [21]: > 128 µM
Compound: CC(C)C[C@H](NC(=O)[C@H](CCCCN)NC(=O)[C@H](CCCCN)NC(=O)CN)C(=O)N[C@@H](CC(C)C)C(=O)N[C@@H](Cc1c[nH]c2ccccc12)C(=O)N[C@@H](CC(C)C)C(=O)N[C@@H](CC(C)C)C(=O)N[C@@H](CCCCN)C(=O)N[C@@H](CCCCN)C(=O)NCC(N)=O [GKKLLWLLKKG]
MIC [13]: ≥ 64 µM

MIC [22]: 21 µM (≈ 31.8 µg/mL)
MIC (Escherichia coli INV-a): ≥ 33 µM
Compound: CC[C@H](C)[C@H](N)C(=O)N[C@@H](CC(N)=O)C(=O)N[C@@H](Cc1c[nH]c2ccccc12)C(=O)N[C@@H](CCCCN)C(=O)NCC(=O)N[C@H](C(=O)N[C@@H](C)C(=O)N[C@@H](C)C(=O)N[C@@H](CCSC)C(=O)N[C@@H](C)C(=O)N[C@@H](CCCCN)C(=O)N[C@@H](CCCCN)C(=O)N[C@@H](CC(C)C)C(=O)N[C@@H](C)C(N)=O)[C@@H](C)CC [INWKGIAAMAKKLA]

MIC [23]: 4.87 µM (≈ 8 µg/mL)
MIC [24]: 19 µM (≈ 31.2 µg/mL)
MIC [25]: 2.44 µM (≈ 4 µg/mL)
MIC [2]: 9.51 µM (≈ 15.6 µg/mL)
MIC [8]: 1.22 µM (≈ 2 µg/mL)
MIC [26]: 9.74 µM (≈ 16 µg/mL)
MIC [27]: 1.22 µM (≈ 2 µg/mL)
MIC [28]: 2.44 µM (≈ 4 µg/mL)
MIC [29]: 4.75 µM (≈ 7.8 µg/mL)
MIC [31]: 18.9 µM (≈ 31 µg/mL)
MIC [32]: 9.5 µM (≈ 15.6 µg/mL)
MIC [33]: 4.87 µM (≈ 8 µg/mL)
MIC [34]: 4.87 µM (≈ 8 µg/mL)
MIC [35]: 2.44 µM (≈ 4 µg/mL)
MIC [36]: 9.74 µM (≈ 16 µg/mL)
MIC [37]: 9.5 µM (≈ 15.6 µg/mL)
MIC [7]: 18.9 µM (≈ 31 µg/mL)
MIC [38]: 0.609 µM (≈ 0.999 µg/mL)
MIC [39]: 9.74 µM (≈ 16 µg/mL)
MIC [20]: 4.87 µM (≈ 8 µg/mL)
MIC [40]: 18.9 µM (≈ 31 µg/mL)
MIC [41]: 0.609 µM (≈ 0.999 µg/mL)
Compound: CC[C@H](C)[C@H](N)C(=O)N[C@@H](CC(N)=O)C(=O)N[C@@H](Cc1c[nH]c2ccccc12)C(=O)N[C@@H](CC(C)C)C(=O)N[C@@H](CCCCN)C(=O)N[C@H](C(=O)N[C@@H](C)C(=O)N[C@@H](CCCCN)C(=O)N[C@@H](CCCCN)C(=O)N[C@H](C(=O)N[C@@H](CCCCN)C(=O)NCC(=O)N[C@@H](CCSC)C(=O)N[C@@H](CC(C)C)C(N)=O)C(C)C)[C@@H](C)CC [INWLKIAKKVKGML]
MIC [30]: 18.9 µM (≈ 31 µg/mL)
